Patent US9512108B2, “9,9,10,10-Tetrafluoro-9,10-dihydrophenanthrene hepatitis C virus inhibitor and application thereof” (NANJING SANHOME PHARMACEUTICAL CO., LTD., priority 2013, dated 2016)

Assays:
Type in all cases: cell-based
[1] = Cell viability test (CellTiter-Fluor) in HCV 1a replicon cells; conditions: human, Huh7 cells stably transfected with HCV genotype 1a replicon; HCV 1a replicon Huh7 cells, 3 days culture; read-out: CC50 (half cytotoxic concentration)
Procedure: (§1) 4) Cell viability test: after adding detection reagent for fluorescence assay of cell growth to each well and culturing the cells in a 37° C., 5% CO2 incubator for one hour, detecting the fluorescence signal values using the multimode microplate reader, with the raw data (RFU) being used for calculation of the cytotoxicity of the compounds;
(§2) 6) Data processing: processing the raw data using the following formula into the inhibition percentage of the compound against HCV replicon (Inhibition %) and the percentage of cell viability (Viability %): Inhibition %=(RLUZPE−RLUCPD)/(RLUZPE−RLUHPE)×100 Viability %=(RFUCPD−RFUHPE)/(RFUZPE−RFUHPE)×100 wherein CPD: the fluorescence signal value of the well of the compound; ZPE (zero percent effect): the fluorescence signal value of the zero percent effect control; HPE (hundred percent effect): the fluorescence signal value of the hundred percent effect control.
(§3) The Inhibition % and Viability % were introduced into GraphPad Prism software for data processing, respectively, to obtain the half effective concentration EC50 of the compound against HCV replicon and the half cytotoxic concentration CC50.
(§4) HCV 1a replicon cells, i.e., Huh7 cell line stably transfected with HCV genotype 1a replicon (provided by WuXi AppTec (Shanghai) Co., Ltd.) were used as the experimental cells. As described above for the HCV 1b replicon cell system, the HCV genotype 1a replicon cell systems were similarly prepared.
(§5) The anti-HCV-1a activities of the compounds of the present invention were tested according to the method for testing the anti-HCV-1b replicon activity in Experimental Example 1.

[2] = Cell viability test (CellTiter-Fluor) in HCV 1b replicon cells; conditions: human, HCV 1b replicon Huh7 cells, 3 days culture, read-out: CC50 (half cytotoxic concentration)
Procedure: (§6) Each of the compounds prepared in the above examples of the present invention was dissolved at 10 mM in DMSO, then diluted to 50 μM with DMEM complete medium, then diluted to 20 nM with complete medium containing 0.5% DMSO, and then serially diluted by 3-fold, to obtain a total of 10 concentrations.
(§7) HCV 1b replicon cells, i.e., Huh7 cell line stably transfected with HCV genotype 1b replicon, were provided by WuXi AppTec (Shanghai) Co., Ltd. Specific preparation methods of Huh7 lb replicon cell system can be found in Lohmann V, Korner F, Koch J, Herian U, Theilmann L, Bartenschlager R., Replication of subgenomic hepatitis C virus RNAs in a hepatoma cell line, Science 285 (5424): 110-113 (1999).
(§8) 1) Preparation of compounds: adding 75 μl of the compounds of the present invention at the above concentration gradient to a 96-well plate using POD810 system, with each concentration for each compound in duplicate;
(§9) 2) Preparation of cells: collecting HCV 1b replicon cells in logarithmic phase and resuspending them in DMEM complete medium, and then adding 75 μl of the cell suspension to each well of the above 96-well plate (8×10^3 cells/well); at the same time, establishing zero percent effect (ZPE) control group and hundred percent effect (HPE) control group, with ZPE group using complete culture medium containing 0.5% DMSO instead of the compound, and the HPE group merely containing DMEM medium in the wells.
(§10) 3) Cell culture: placing the 96-well plate in a 37° C., 5% CO2 incubator and culturing for 3 days.
as §1, §2, §3

HCV genotype 1b replicon = test: Anti-HCV-1b replicon activity (luciferase, Bright-Glo); conditions: Hepatitis C virus, Huh-7, 72 h, read-out: EC50 against HCV-1b replicon
Procedure: as §6, §7, §8, §9, §10
(§11) 5) Anti-HCV replicon activity assay: adding luciferase luminescence substrate Bright-Glo to each well, and detecting luminescence signal values using the multimode microplate reader within 5 min, with the raw data (RLU) being used for calculation of the anti-HCV activities of the compounds;
as §2, §3

HCV genotype 1a replicon = test: Anti-HCV-1a replicon activity (luciferase, Bright-Glo); conditions: Hepatitis C virus, Huh-7, 72 h, read-out: EC50 against HCV-1a replicon
Procedure: as §8, §9, §10, §11, §2, §3, §4, §5

[3] = Huh7 cells stably transfected with HCV genotype 1b replicon

Row | Compound | CC50 at 3 days [1] | CC50 at 3 days [2, 3] | EC50 (HCV genotype 1b replicon) | EC50 (HCV genotype 1a replicon) | CC50 at 3 days [2]
1 | COC(=O)N[C@H](C(=O)N1CC2(CC2)C[C@H]1c1nc(-c2ccc3c(c2)C(F)(F)C(F)(F)c2cc(-c4ccc5nc([C@@H]6CCCN6C(=O)[C@@H](NC(=O)OC)C(C)C)[nH]c5c4)ccc2-3)c[nH]1)C(C)C [Example 12, Methyl N-((2S)-1-((S)-2-(6-(7-((S)-2-(5-((S)-2-((methoxycarbonyl)amino)-3-methylbutanoyl)-5-azaspiro[2.4]heptan-6-yl)-1H-imidazol-5-yl)-9,9,10,10-tetrafluoro-dihydrophenanthren-2-yl)-1H-benzo[d]imidazol-2-yl)pyrrolidin-1-yl)-3-methyl-1-oxobutan-2-yl)carbamate] | > 10 nM | > 10 nM | 0.008 nM | 0.061 nM | 
2 | COC(=O)N[C@H](C(=O)N1[C@@H]2CC[C@@H](C2)[C@H]1c1ncc(-c2ccc3c(c2)C(F)(F)C(F)(F)c2cc(-c4cnc([C@@H]5[C@H]6CC[C@H](C6)N5C(=O)[C@@H](NC(=O)OC)C(C)(C)C)[nH]4)ccc2-3)[nH]1)C(C)(C)C [Example 4, Dimethyl (2S,2′S)-1,1′-((1R,1′R,3S,3′S,4S,4′S)-3,3′-(5,5′-(9,9,10,10-tetrafluoro-9,10-dihydrophenanthren-2,7-diyl)bis(1H-imidazol-5,2-diyl))bis(2-azabicyclo[2.2.1]heptan-3,2-yl))bis(3,3-dimethyl-1-oxobutan-2,1-diyl)dicarbamate] |  | > 10 nM | 0.047 nM |  | 
3 | COC(=O)N[C@H](C(=O)N1CCCC1c1ncc(-c2ccc(-c3ccc4c(c3)C(F)(F)C(F)(F)c3cc(-c5ccc(-c6cnc([C@@H]7CCCN7C(=O)[C@@H](NC(=O)OC)C(C)(C)C)[nH]6)cc5)ccc3-4)cc2)[nH]1)C(C)(C)C (stereo partly drawn) [Example 2, dimethyl (2S,2′S)-1,1′-((2S,2′S)-2,2′-(5,5′-(4,4′-(9,9,10,10-tetrafluoro-9,10-dihydrophenanthren-2,7-diyl)bis(4,1-phenylene))bis(1H-imidazol-5,2-diyl))bis(pyrrolidin-2,1-diyl))bis(3,3-dimethyl-1-oxobutan-2,1-diyl)dicarbamate] |  | > 10 nM | 0.017 nM |  | 
4 | COC(=O)N[C@H](C(=O)N1CCC[C@H]1c1ncc(-c2ccc3c(c2)C(F)(F)C(F)(F)c2cc(-c4cnc([C@@H]5CCCN5C(=O)[C@@H](NC(=O)OC)C(C)C)[nH]4)ccc2-3)[nH]1)C(C)C [Example 1, Dimethyl (2S,2′S)-1,1′-((2S,2′S)-2,2′-(5,5′-(9,9,10,10-tetrafluoro-9,10-dihydrophenanthren-2,7-diyl)bis(1H-imidazol-5,2-diyl))bis(pyrrolidin-2,1-diyl))bis(3-methyl-1-oxobutan-2,1-diyl)dicarbamate] | > 10 nM | > 10 nM | 0.0046 nM | 0.19 nM | 
5 | COC(=O)N[C@H](C(=O)N1CC2(C[C@H]1c1ncc(-c3ccc4c(c3)C(F)(F)C(F)(F)c3cc(-c5cnc([C@@H]6CC7(CN6C(=O)[C@@H](NC(=O)OC)C(C)C)OCCO7)[nH]5)ccc3-4)[nH]1)OCCO2)C(C)C [Example 17, Dimethyl ((2S,2′S)-((2S,2′S)-2,2′-(5,5′-(9,9,10,10-tetrafluoro-9,10-dihydrophenanthren-2,7-diyl)bis(1H-imidazol-5,2-diyl))bis(1,4-dioxa-7-azaspiro[4.4]nonan-7,8-diyl))bis(3-methyl-1-oxobutan-2,1-diyl))dicarbamate] | > 10 nM | > 10 nM | 0.007 nM | 0.175 nM | 
6 | COC(=O)N[C@H](C(=O)N1CCC[C@H]1c1ncc(-c2ccc3c(c2)C(F)(F)C(F)(F)c2cc(-c4cnc([C@@H]5CCCN5C(=O)[C@@H](NC(=O)OC)C(C)(C)C)[nH]4)ccc2-3)[nH]1)C(C)(C)C [Example 7, Dimethyl (2S,2′S)-1,1′-((2S,2′S)-2,2′-(5,5′-(9,9,10,10-tetrafluoro-9,10-dihydrophenanthren-2,7-diyl)bis(1H-imidazol-5,2-diyl))bis(pyrrolidin-2,1-diyl))bis(3,3-dimethyl-1-oxobutan-2,1-diyl)dicarbamate] |  | > 10 nM | 0.0063 nM |  | 
7 | COC(=O)N[C@H](C(=O)N1CCC[C@H]1c1ncc(-c2ccc3c(c2)C(F)(F)C(F)(F)c2cc(-c4cnc([C@@H]5CCCN5C(=O)[C@@H](NC(=O)OC)[C@@H](C)OC)[nH]4)ccc2-3)[nH]1)[C@@H](C)OC [Example 13] |  | > 10 nM | 0.056 nM |  | 
8 | COC(=O)N[C@H](C(=O)N1[C@@H]2CC[C@@H](C2)[C@H]1c1ncc(-c2ccc3c(c2)C(F)(F)C(F)(F)c2cc(-c4cnc([C@@H]5[C@H]6CC[C@H](C6)N5C(=O)[C@@H](NC(=O)OC)[C@@H](C)OC)[nH]4)ccc2-3)[nH]1)[C@@H](C)OC [Example 6, Dimethyl (2S,2′S,3R,3′R)-1,1′-((1R,1′R,3S,3′S,4S,4′S)-3,3′-(5,5′-(9,9,10,10-tetrafluoro-9,10-dihydrophenanthren-2,7-diyl)bis(1H-imidazol-5,2-diyl))bis(2-azabicyclo[2.2.1]heptan-3,2-diyl))bis(3-methoxy-1-oxobutan-2,1-diyl)dicarbamate] |  | > 10 nM | 0.014 nM |  | 
9 | COC(=O)N[C@H](C(=O)N1[C@@H]2CC[C@@H](C2)[C@H]1c1ncc(-c2ccc3c(c2)C(F)(F)C(F)(F)c2cc(-c4cnc([C@@H]5[C@H]6CC[C@H](C6)N5C(=O)[C@@H](NC(=O)OC)C(C)C)[nH]4)ccc2-3)[nH]1)C(C)C [Example 3, Dimethyl (2S,2′S)-1,1′-((1R,1′R,3S,3′S,4S,4′S)-3,3′-(5,5′-(9,9,10,10-tetrafluoro-9,10-dihydrophenanthren-2,7-diyl)bis(1H-imidazol-5,2-diyl))bis(2-azabicyclo[2.2.1]heptan-3,2-yl))bis(3-methyl-1-oxobutan-2,1-diyl)dicarbamate] |  |  | 0.017 nM |  | > 10 nM
10 | COC(=O)N[C@H](C(=O)N1[C@@H]2CC[C@@H](C2)[C@H]1c1ncc(-c2ccc3c(c2)C(F)(F)C(F)(F)c2cc(-c4cnc([C@@H]5[C@H]6CC[C@H](C6)N5C(=O)[C@@H](NC(=O)OC)[C@@H](C)O)[nH]4)ccc2-3)[nH]1)[C@@H](C)O [Example 5, Dimethyl (2S,2′S,3R,3′R)-1,1′-((1R,1′R,3S,3′S,4S,4′S)-3,3′-(5,5′-(9,9,10,10-tetrafluoro-9,10-dihydrophenanthren-2,7-diyl)bis(1H-imidazol-5,2-diyl))bis(2-azabicyclo[2.2.1]heptan-3,2-diyl))bis(3-hydroxy-1-oxobutan-2,1-diyl)dicarbamate] |  |  | 0.041 nM |  | > 10 nM
11 | COC(=O)N[C@H](C(=O)N1CCC[C@H]1c1ncc(-c2ccc3c(c2)C(F)(F)C(F)(F)c2cc(-c4cnc([C@@H]5CCCN5C(=O)[C@@H](NC(=O)OC)[C@@H](C)O)[nH]4)ccc2-3)[nH]1)[C@@H](C)O [Example 8, Dimethyl ((2S,2′S,3R,3′R)-((2S,2′S)-2,2′-(5,5′-(9,9,10,10-tetrafluoro-9,10-dihydrophenanthren-2,7-diyl)bis(1H-imidazol-5,2-diyl))bis(pyrrolidin-2,1-diyl))bis(3-hydroxy-1-oxobutan-2,1-diyl))dicarbamate] |  | > 10 nM | 0.058 nM |  | 
